Each block holds one compound with its values, some of them ahead of it.
Assays:
Rattus norvegicus [1] = experiment: Percent change in average volume of pleural fluid at a dose of 4.0 mg/kg and 5-h response by Evans blue-carrageenan induced pleural effusion assay.; type: functional
Rattus norvegicus [2] = species: Rattus norvegicus; experiment: Evaluated for chronic potency in adjuvant arthritis assay; type: functional
Rattus norvegicus [3] = experiment: Evaluated for chronic intestinal toxicity (multiple oral dose) in rats; type: organism-based; settings: in vivo
Mus musculus [4] = experiment: Oral analgesic activity was determined in mice by the acetylcholine-induced abdominal constriction assay upon ip administration of acetylcholine bromide 20 min following oral administration; type: functional; settings: Abdomen
Rattus norvegicus [5] = experiment: Percent change in avg. volume of pleural fluid at a dose of 0.16 mg/kg and 5-h response is evaluated by Evans blue-carrageenan induced pleural effusion assay
Mus musculus [6] = experiment: Oral analgesic activity was determined in mice by the acetylcholine-induced abdominal constriction assay upon ip administration of acetylcholine bromide 5 hours following oral administration; type: functional; settings: Abdomen
Rattus norvegicus [7] = species: Rattus norvegicus; experiment: Evaluated for acute potency in pleural effusion assay; type: functional
Rattus norvegicus [8] = experiment: Acute gastric toxicity (single oral dose) in male fasted rats; type: organism-based, Stomach; settings: in vivo
Rattus norvegicus [9] = experiment: Percent change in average volume of pleural fluid at a dose 4 mg/kg of indomethacin and 5-h response is evaluated by Evans blue-carrageenan induced pleural effusion assay; type: functional
Rattus norvegicus [10] = experiment: Percent change in average volume of pleural fluid at a dose of 100 mg/kg and 5-h response by Evans blue-carrageenan induced pleural effusion assay.; type: functional
[11] = Chronic therapeutic index as ratio of potency in adjuvant-induced arthritis assay to that of potency in intestinal toxicity assay; settings: read-out: Chronic TI
Cyclooxygenase = target: T1, Cyclooxygenase (Bos taurus, UniProt O62664+O62698)
T1 sequence (O62664 whole entry): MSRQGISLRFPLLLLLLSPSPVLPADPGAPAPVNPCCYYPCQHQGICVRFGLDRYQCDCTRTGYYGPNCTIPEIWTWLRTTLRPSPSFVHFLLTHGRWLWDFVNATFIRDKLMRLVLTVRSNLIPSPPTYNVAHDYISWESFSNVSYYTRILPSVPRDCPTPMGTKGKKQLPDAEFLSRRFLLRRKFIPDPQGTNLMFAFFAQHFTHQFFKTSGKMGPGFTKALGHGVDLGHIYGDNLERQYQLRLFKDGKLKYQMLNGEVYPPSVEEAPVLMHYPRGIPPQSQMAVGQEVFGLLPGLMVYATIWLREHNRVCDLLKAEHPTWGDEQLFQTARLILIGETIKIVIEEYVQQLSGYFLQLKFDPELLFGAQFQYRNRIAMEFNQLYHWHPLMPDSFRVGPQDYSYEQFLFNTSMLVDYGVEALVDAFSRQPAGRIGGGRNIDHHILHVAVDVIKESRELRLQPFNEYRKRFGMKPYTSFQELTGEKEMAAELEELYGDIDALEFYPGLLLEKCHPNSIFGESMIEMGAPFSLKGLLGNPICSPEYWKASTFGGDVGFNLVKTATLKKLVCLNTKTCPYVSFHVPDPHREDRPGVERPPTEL
T1 sequence (O62698 whole entry): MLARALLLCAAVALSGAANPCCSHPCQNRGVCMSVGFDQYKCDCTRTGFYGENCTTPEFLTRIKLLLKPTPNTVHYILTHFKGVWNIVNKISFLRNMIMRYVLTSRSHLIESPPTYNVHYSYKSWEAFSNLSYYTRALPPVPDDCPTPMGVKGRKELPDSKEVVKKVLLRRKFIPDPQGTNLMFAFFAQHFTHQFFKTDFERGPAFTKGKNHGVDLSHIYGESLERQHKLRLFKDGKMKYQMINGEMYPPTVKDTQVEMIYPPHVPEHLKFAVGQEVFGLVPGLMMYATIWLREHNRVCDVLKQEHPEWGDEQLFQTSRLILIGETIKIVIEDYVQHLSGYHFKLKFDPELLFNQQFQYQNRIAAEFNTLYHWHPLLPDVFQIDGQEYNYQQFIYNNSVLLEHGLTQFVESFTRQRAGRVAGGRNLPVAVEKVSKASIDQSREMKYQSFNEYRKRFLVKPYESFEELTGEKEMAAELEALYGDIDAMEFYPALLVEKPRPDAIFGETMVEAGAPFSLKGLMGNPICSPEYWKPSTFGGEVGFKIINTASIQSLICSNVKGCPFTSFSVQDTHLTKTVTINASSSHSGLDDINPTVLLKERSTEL
Description: Inhibition of prostaglandin G/H synthase obtained from bovine seminal vesicles.

[12] = Acute therapeutic index as ratio of potency in pleural effusion to that of potency in gastric toxicity assay; type: tissue-based; settings: Stomach; read-out: Acute TI
Rattus norvegicus [13] = experiment: Percent change in avg. volume of pleural fluid at a dose of 4.0 mg/kg and 5-h response is evaluated by Evans blue-carrageenan induced pleural effusion assay; type: functional
Rattus norvegicus [14] = experiment: Percent change in avg. volume of pleural fluid at a dose 4 mg/kg of indomethacin and 5-h response is evaluated by Evans blue-carrageenan induced pleural effusion assay; type: functional

Structure (SMILES): Nc1c(CC(=O)[O-])cccc1C(=O)c1ccccc1.[Na+] [AMFENAC SODIUM]
Change (Rattus norvegicus [1]): -26%
Potency (Rattus norvegicus [2]): 1.1
Intestinal toxicity (Rattus norvegicus [3]): 0.4
ED50 (Mus musculus [4]): 0.11 mg/kg
Change (Rattus norvegicus [5]): -13%
ED50 (Mus musculus [6]): > 3 mg/kg
Potency (Rattus norvegicus [7]): 0.7
Gastric toxicity (Rattus norvegicus [8]): 0.7
Change (Rattus norvegicus [9]): -33%
Change (Rattus norvegicus [10]): -35%

Structure (SMILES): Cc1cc(CC(=O)O)n(C)c1C(=O)c1ccc(Cl)cc1 [ZOMEPIRAC]
selectivity ratio [11]: 1.1
Potency (Rattus norvegicus [2]): 0.67
Intestinal toxicity (Rattus norvegicus [3]): 0.63
ED50 (Mus musculus [4]): 0.21 mg/kg
IC50 (Cyclooxygenase): 15000 nM
ED50 (Mus musculus [6]): 0.59 mg/kg
Potency (Rattus norvegicus [7]): 0.78
Gastric toxicity (Rattus norvegicus [8]): 0.25
selectivity ratio [12]: 3.1

Structure (SMILES): Nc1c(CC(=O)[O-])cccc1C(=O)c1ccc(Cl)cc1.[Na+]
Change (Rattus norvegicus [1]): -29%
selectivity ratio [11]: 1.6
Potency (Rattus norvegicus [2]): 2.2
Intestinal toxicity (Rattus norvegicus [3]): 1.4
ED50 (Mus musculus [4]): 0.1 mg/kg
IC50 (Cyclooxygenase): 300 nM
Change (Rattus norvegicus [5]): -16%
ED50 (Mus musculus [6]): 0.93 mg/kg
Potency (Rattus norvegicus [7]): 3.8
Gastric toxicity (Rattus norvegicus [8]): 0.9
selectivity ratio [12]: 4.3
Change (Rattus norvegicus [9]): -33%
Change (Rattus norvegicus [10]): -38%

Structure (SMILES): Nc1c(CC(=O)[O-])cccc1C(=O)c1ccc(Cl)cc1Cl.[Na+]
Change (Rattus norvegicus [1]): -37%
Potency (Rattus norvegicus [2]): 4.2
Intestinal toxicity (Rattus norvegicus [3]): 0.6
ED50 (Mus musculus [4]): 0.21 mg/kg
IC50 (Cyclooxygenase): 600 nM
Change (Rattus norvegicus [5]): -16%
ED50 (Mus musculus [6]): > 0.3 mg/kg
Potency (Rattus norvegicus [7]): 5.3
Gastric toxicity (Rattus norvegicus [8]): 1
Change (Rattus norvegicus [9]): -33%
Change (Rattus norvegicus [10]): -41%

Structure (SMILES): Nc1ccc(C(=O)c2ccccc2)cc1CC(=O)O
Change (Rattus norvegicus [13]): 11%
Change (Rattus norvegicus [9]): -43%

Structure (SMILES): Nc1cccc(C(=O)c2ccccc2)c1CC(=O)[O-].[Na+]
Change (Rattus norvegicus [1]): -2%
Change (Rattus norvegicus [14]): -35%

Structure (SMILES): Nc1c(CC(=O)[O-])cc(F)cc1C(=O)c1ccc(Cl)cc1.[Na+]
Change (Rattus norvegicus [1]): -37%
Potency (Rattus norvegicus [2]): 1.9
Intestinal toxicity (Rattus norvegicus [3]): 0.5
ED50 (Mus musculus [4]): 0.28 mg/kg
IC50 (Cyclooxygenase): 100 nM
Change (Rattus norvegicus [5]): -15%
ED50 (Mus musculus [6]): 1.4 mg/kg
Potency (Rattus norvegicus [7]): 3.6
Gastric toxicity (Rattus norvegicus [8]): 1.1
Change (Rattus norvegicus [9]): -34%

Structure (SMILES): Nc1c(CC(=O)[O-])cc(F)cc1C(=O)c1ccc(Br)cc1.[Na+]
Change (Rattus norvegicus [1]): -28%
selectivity ratio [11]: 1.2
Potency (Rattus norvegicus [2]): 2.2
Intestinal toxicity (Rattus norvegicus [3]): 1.9
ED50 (Mus musculus [4]): 0.18 mg/kg
IC50 (Cyclooxygenase): 40 nM
ED50 (Mus musculus [6]): 0.29 mg/kg
Potency (Rattus norvegicus [7]): 8.4
Gastric toxicity (Rattus norvegicus [8]): 1.7
selectivity ratio [12]: 4.9
Change (Rattus norvegicus [9]): -25%
Change (Rattus norvegicus [10]): -28%

IC50 (Cyclooxygenase): 5400 nM
Structure (SMILES): COc1cc(CC(=O)[O-])c(N)c(C(=O)c2ccccc2)c1.[Na+]
Change (Rattus norvegicus [1]): -18%
Change (Rattus norvegicus [14]): -48%

Structure (SMILES): Nc1c(CC(=O)[O-])cc(Cl)cc1C(=O)c1ccc(Cl)cc1.[Na+]
Change (Rattus norvegicus [1]): -41%
selectivity ratio [11]: 1.4
Potency (Rattus norvegicus [2]): 1.7
Intestinal toxicity (Rattus norvegicus [3]): 1.2
ED50 (Mus musculus [4]): 0.23 mg/kg
IC50 (Cyclooxygenase): 300 nM
Change (Rattus norvegicus [5]): -18%
ED50 (Mus musculus [6]): 0.31 mg/kg
Potency (Rattus norvegicus [7]): 4.6
Gastric toxicity (Rattus norvegicus [8]): 1.2
selectivity ratio [12]: 3.8
Change (Rattus norvegicus [9]): -32%

Structure (SMILES): Nc1cc(C(=O)c2ccccc2)ccc1CC(=O)[O-].[Na+]
Change (Rattus norvegicus [13]): -31%
Change (Rattus norvegicus [10]): -2%

Structure (SMILES): Nc1c(CC(=O)[O-])cccc1C(=O)c1ccc(Br)cc1.Nc1c(CC(=O)[O-])cccc1C(=O)c1ccc(Br)cc1.O.O.O.[Na+].[Na+] [BROMFENAC SODIUM]
Change (Rattus norvegicus [1]): -43%
selectivity ratio [11]: 3.2
Potency (Rattus norvegicus [2]): 5.8
Intestinal toxicity (Rattus norvegicus [3]): 1.8
ED50 (Mus musculus [4]): 0.07 mg/kg
IC50 (Cyclooxygenase): 80 nM
Change (Rattus norvegicus [5]): -27%
ED50 (Mus musculus [6]): 0.13 mg/kg
Potency (Rattus norvegicus [7]): 7.5
Gastric toxicity (Rattus norvegicus [8]): 1.4
selectivity ratio [12]: 5.4
Change (Rattus norvegicus [9]): -41%

Structure (SMILES): COc1ccc2c(c1)c(CC(=O)O)c(C)n2C(=O)c1ccc(Cl)cc1 [INDOMETHACIN]
Change (Rattus norvegicus [1]): -33%
Potency (Rattus norvegicus [2]): 1
Intestinal toxicity (Rattus norvegicus [3]): 1
ED50 (Mus musculus [4]): 0.22 mg/kg
Change (Rattus norvegicus [5]): -7%
ED50 (Mus musculus [6]): 0.22 mg/kg
Potency (Rattus norvegicus [7]): 1
Gastric toxicity (Rattus norvegicus [8]): 1

Structure (SMILES): Nc1c(CC(=O)[O-])cc(Cl)cc1C(=O)c1ccc(I)cc1.[Na+]
Change (Rattus norvegicus [1]): -35%
selectivity ratio [11]: 2.5
Potency (Rattus norvegicus [2]): 5.5
Intestinal toxicity (Rattus norvegicus [3]): 2.2
ED50 (Mus musculus [4]): 0.24 mg/kg
IC50 (Cyclooxygenase): 30 nM
ED50 (Mus musculus [6]): 0.24 mg/kg
Potency (Rattus norvegicus [7]): 3.8
Gastric toxicity (Rattus norvegicus [8]): 3.5
selectivity ratio [12]: 1.1
Change (Rattus norvegicus [9]): -33%
Change (Rattus norvegicus [10]): -38%

Structure (SMILES): Nc1c(CC(=O)[O-])cc(Cl)cc1C(=O)c1ccc(Br)cc1.[Na+]
Change (Rattus norvegicus [1]): -41%
selectivity ratio [11]: 1.6
Potency (Rattus norvegicus [2]): 4.6
Intestinal toxicity (Rattus norvegicus [3]): 2.9
ED50 (Mus musculus [4]): 0.05 mg/kg
IC50 (Cyclooxygenase): 20 nM
ED50 (Mus musculus [6]): 0.13 mg/kg
Potency (Rattus norvegicus [7]): 15
Gastric toxicity (Rattus norvegicus [8]): 1.5
selectivity ratio [12]: 10
Change (Rattus norvegicus [9]): -40%
Change (Rattus norvegicus [10]): -38%

Structure (SMILES): Cc1cc(CC(=O)[O-])c(N)c(C(=O)c2ccc(Cl)cc2)c1.[Na+]
Change (Rattus norvegicus [1]): -32%
Potency (Rattus norvegicus [2]): 0.63
Intestinal toxicity (Rattus norvegicus [3]): 0.4
ED50 (Mus musculus [4]): 0.78 mg/kg
IC50 (Cyclooxygenase): 700 nM
Change (Rattus norvegicus [5]): 0%
ED50 (Mus musculus [6]): 0.65 mg/kg
Potency (Rattus norvegicus [7]): 1.7
Gastric toxicity (Rattus norvegicus [8]): 0.27
Change (Rattus norvegicus [9]): -35%
Change (Rattus norvegicus [10]): -38%

Structure (SMILES): Nc1c(CC(=O)[O-])cccc1C(=O)c1ccc(I)cc1.[Na+]
Change (Rattus norvegicus [1]): -31%
selectivity ratio [11]: 2.5
Potency (Rattus norvegicus [2]): 8.1
Intestinal toxicity (Rattus norvegicus [3]): 3.3
ED50 (Mus musculus [4]): 0.13 mg/kg
IC50 (Cyclooxygenase): 70 nM
Change (Rattus norvegicus [5]): -17%
ED50 (Mus musculus [6]): 0.18 mg/kg
Potency (Rattus norvegicus [7]): 6.9
Gastric toxicity (Rattus norvegicus [8]): 5.3
selectivity ratio [12]: 1.3
Change (Rattus norvegicus [9]): -32%
Change (Rattus norvegicus [10]): -44%

Structure (SMILES): Nc1ccc(CC(=O)O)cc1C(=O)c1ccccc1
Change (Rattus norvegicus [1]): -4%
Change (Rattus norvegicus [14]): -31%
